What all share (format): cell-based, human
Experiment [1] concerns CD3-positive Jurkat cells. The experiment is described as follows: Delivery assay, Z-RFP FACS, Jurkat cells. The note with it: 1 nM, 10 nM, 100 nM; 30 minutes. How it is done:
For FIG. 30 Panel E, Foralumab-LL37 was made from Foralumab (SEQ ID NOs: 129 and 130) in a sortase-catalyzed reaction to GG-LL37 peptide (SEQ ID NO: 2), and purified on Protein A chromatography. For cell delivery assay, Foralumab/Foralumab-LL37 and equimolar number of Z-RFP were added to Jurkat cells at described final concentration (i.e, 1 nM, 10 nM, and 100 nM) and incubated for 30 minutes. The liquid suspension culture was gently spun in a microcentrifuge at 2000 rpm for 4 minutes, and the clear supernatant was removed, and the cell pellet was washed in PBS and resuspended in FACS buffer (1XPBS, 2% FBS, 1 mM EDTA, 0.02% sodium azide) for analysis by FACS (Texas Red channel).

In experiment [2] the test system is T47D cells. The experiment is described as follows: Anti-HER2 mAb delivery efficiency using antimicrobial peptides. The note with it: peptide conjugated to anti-HER2 mAb, 100 nM + 100 nM Z-GFP, 4 hours. On the procedure: (§1) LL37 and LL37-derived peptides were produced synthetically with two additional N-terminal glycine residues (e.g. as shown in SEQ ID NO:2 compared to SEQ ID NO: 1) to enable the sortase reaction. The LL37-derived peptides (PEP#35 to #43, SEQ ID NOs: 13-21) were all dissolved at 10 mg/ml in phosphate buffer saline (PBS) at room temperature, sterile-filtered, and stored at -20° C. freezer. PEP#48 (SEQ ID: 74), PEP#49 (SEQ ID No: 75), and PEP#60 (SEQ ID NO: 105) were dissolved in 20% (v/v) acetonitrile in PBS. PEP#47 (SEQ ID NO: 96), PEP#86 (SEQ ID NO: 78), PEP#98 (SEQ ID NO: 79), PEP#99 (SEQ ID NO: 80), PEP#102 (SEQ ID NO: 82), and PEP#104 (SEQ ID NO: 84) were dissolved in DMSO. PEP#50 (SEQ ID No: 76), PEP#51 (SEQ ID No: 97), PEP#55 (SEQ ID No: 77), PEP#58 (SEQ ID No: 103), PEP#59 (SEQ ID No: 104), PEP#61 (SEQ ID No: 106), PEP#62 (SEQ ID No: 107), PEP#63 (SEQ ID No: 108), PEP#64 (SEQ ID No: 109), PEP#66 (SEQ ID No: 110), and PEP#94 (SEQ ID No: 35) were all dissolved in PBS. […] The reaction was incubated inside a 37° C. incubator for 16 hours, and then EDTA (pH 7.5) was added to 10 mM in the reaction mixture to chelate calcium and stop the reaction.
The plates were then removed from the incubator, and the culturing media was removed from the adherent cells. […] Then, the PBS wash was replaced 250 µl of fresh PBS for fluorescence microscope imaging.

The test system of experiment [3] is T47D cells. Kind of experiment: Anti-HER2 mAb delivery efficiency using LL37-derived peptide constructs. The note with it: peptide conjugated to anti-HER2 mAb light chain, 100 nM Ab, Z-GFP (PEP#6, 35-43) or Goat anti-human IgG-AlexaFluor 488 (PEP#6, 47-94) fluorescence microscopy. How it is done:
as §1
Delivery assay: The following delivery assay method was used on the anti-HER2 mAbs conjugated to the PEP#6, #35, #36, #37, #38, #39, #40, #41, #42, and #43 described in Table 7. […] The plates were then removed from the incubator, and the culturing media was removed from the adherent cells. The adherent cells were washed gently with an equal volume of ice-cold PBS. Then, the PBS wash was replaced 250 µl of fresh PBS for fluorescence microscope imaging.
At the end of incubation, the adherent target cells were washed twice with ice-cold PBS, fixed with 2% (w/v) formaldehyde in PBS at room temperature for 15 minutes, and washed twice with PBS at room temperature. The fixed adherent target cells were then permeabilized with 0.05% (v/v) Tween-20 in PBS at room temperature for 15 minutes. The permeabilized cells were then incubated with 5% (v/v) FBS, 0.05% (v/v) Tween-20 in PBS at 37 degree Celsius incubator for 30 minutes. The secondary antibody, Goat anti-human IgG-AlexaFluor 488, was added to 5 ug/ml in 5% (v/v) FBS, 0.05% (v/v) Tween-20 in PBS, and incubated with the treated target cells at 37 degree Celsius incubator for 30 minutes. After incubation, the labelled cells were washed twice with PBS, and stored in storage buffer [5% (v/v) FBS in PBS] at 4 degree Celsius until fluorescence microscope imaging. The delivery of mAb and mAb-LL37-derived peptides were determined qualitatively by estimating the green fluorescence intensity emitted from the AlexFluor488-labelled secondary antibody bound to mAb or mAb-LL37-derived peptides.

Turning to Foralumab-LL37, the “targeted delivery (in words)” value in experiment [1] is given as “more efficient than anti-CD3e mAb (i.e., Foralumab) at targeted delivery”.
As for “LLGDFFRKSKEKIGKEFKRIVQRIKDFLRNLVPRTES [PEP#6 (LL37), two N-terminal glycines added for conjugation]”, the Delivery efficiency result in the experiment on T47D cells [2] and with T47D cells [3] was “+++ (Same as LL37)” throughout.
